# How the values were obtained:
# Candida albicans = test: Antifungal activity against Candida albicans assessed as inhibition of fungal growth measured after 48 hrs by CLSI based agar dilution method; assay type: functional
# Candida tropicalis = test: Antifungal activity against Candida tropicalis assessed as inhibition of fungal growth measured after 48 hrs by CLSI based agar dilution method; assay type: functional
# Cryptococcus neoformans = test: Antifungal activity against Cryptococcus neoformans ATCC 32609 assessed as inhibition of fungal growth measured after 48 hrs by CLSI based agar dilution method; assay type: functional
# Pichia kudriavzevii [1] = test: Antifungal activity against Candida krusei assessed as inhibition of fungal growth measured after 48 hrs by CLSI based agar dilution method; assay type: functional
# [2] = Hemolytic activity in human RBC measured after 1 hr; assay type: toxicity, cell-based, Erythrocyte; conditions: red blood cells (erythrocytes)
# Candida parapsilosis = test: Antifungal activity against Candida parapsilosis assessed as inhibition of fungal growth measured after 48 hrs by CLSI based agar dilution method; assay type: functional; conditions: Lodderomyces parapsilosis
# Pichia kudriavzevii [3] = test: Antifungal activity against Candida krusei ATCC 6258 assessed as inhibition of fungal growth measured after 48 hrs by CLSI based agar dilution method; assay type: functional
SMILES,MIC (Candida albicans) [µg/mL],MIC (Candida tropicalis) [µg/mL],MIC (Cryptococcus neoformans) [µg/mL],MIC (Pichia kudriavzevii [1]) [µg/mL],HC50 at 1 h [2] [µM],MIC (Candida parapsilosis) [µg/mL],MIC (Pichia kudriavzevii [3]) [µg/mL]
CNCC(=O)N[C@@H]1[C@H](O)[C@H](O[C@H]2/C=C/C=C/C=C/C=C/C=C/C=C/C=C/[C@H](C)[C@@H](O)[C@@H](C)[C@H](C)OC(=O)C[C@H](O)C[C@H](O)CC[C@@H](O)[C@H](O)C[C@H](O)C[C@]3(O)C[C@H](O)[C@@H](C(=O)N4CCN(CC(C)(C)O)CC4)[C@H](C2)O3)O[C@H](C)[C@H]1O,0.25,1,0.5,0.5,27.7,4,16
CNCC(=O)N[C@@H]1[C@H](O)[C@H](O[C@H]2/C=C/C=C/C=C/C=C/C=C/C=C/C=C/[C@H](C)[C@@H](O)[C@@H](C)[C@H](C)OC(=O)C[C@H](O)C[C@H](O)CC[C@@H](O)[C@H](O)C[C@H](O)C[C@]3(O)C[C@H](O)[C@@H](C(=O)N4CCN(CCCO)CC4)[C@H](C2)O3)O[C@H](C)[C@H]1O,0.5,0.5,0.125,0.5,19.5,0.5,2
CNCC(=O)N[C@@H]1[C@H](O)[C@H](O[C@H]2/C=C/C=C/C=C/C=C/C=C/C=C/C=C/[C@H](C)[C@@H](O)[C@@H](C)[C@H](C)OC(=O)C[C@H](O)C[C@H](O)CC[C@@H](O)[C@H](O)C[C@H](O)C[C@]3(O)C[C@H](O)[C@@H](C(=O)NCCCO)[C@H](C2)O3)O[C@H](C)[C@H]1O,0.125,0.5,0.25,0.5,6.24,0.5,0.25
CNCC(=O)N[C@@H]1[C@H](O)[C@H](O[C@H]2/C=C/C=C/C=C/C=C/C=C/C=C/C=C/[C@H](C)[C@@H](O)[C@@H](C)[C@H](C)OC(=O)C[C@H](O)C[C@H](O)CC[C@@H](O)[C@H](O)C[C@H](O)C[C@]3(O)C[C@H](O)[C@@H](C(=O)N(C)CCCO)[C@H](C2)O3)O[C@H](C)[C@H]1O,0.06,4,1,0.5,9.52,4,4
CNCC(=O)N[C@@H]1[C@H](O)[C@H](O[C@H]2/C=C/C=C/C=C/C=C/C=C/C=C/C=C/[C@H](C)[C@@H](O)[C@@H](C)[C@H](C)OC(=O)C[C@H](O)C[C@H](O)CC[C@@H](O)[C@H](O)C[C@H](O)C[C@]3(O)C[C@H](O)[C@@H](C(=O)N4CCN(CC(O)CO)CC4)[C@H](C2)O3)O[C@H](C)[C@H]1O (some centres not stated),1,1,0.5,1,9.06,0.25,2
COC(=O)NNC(=O)[C@H]1[C@@H]2C[C@@H](O[C@@H]3O[C@H](C)[C@@H](O)[C@H](N)[C@@H]3O)/C=C/C=C/C=C/C=C/C=C/C=C/C=C/[C@H](C)[C@@H](O)[C@@H](C)[C@H](C)OC(=O)C[C@H](O)C[C@H](O)CC[C@@H](O)[C@H](O)C[C@H](O)C[C@](O)(C[C@@H]1O)O2,0.015,0.5,0.125,0.015,5.69,0.5,0.25
C[C@@H]1[C@H](O)[C@@H](C)/C=C/C=C/C=C/C=C/C=C/C=C/C=C/[C@H](O[C@@H]2O[C@H](C)[C@@H](O)[C@H](NC(=O)CN)[C@@H]2O)C[C@@H]2O[C@](O)(C[C@@H](O)C[C@@H](O)[C@H](O)CC[C@@H](O)C[C@@H](O)CC(=O)O[C@H]1C)C[C@H](O)[C@H]2C(=O)NCCCN(C)C,1,16,2,8,–,8,32
CNCC(=O)N[C@@H]1[C@H](O)[C@H](O[C@H]2/C=C/C=C/C=C/C=C/C=C/C=C/C=C/[C@H](C)[C@@H](O)[C@@H](C)[C@H](C)OC(=O)C[C@H](O)C[C@H](O)CC[C@@H](O)[C@H](O)C[C@H](O)C[C@]3(O)C[C@H](O)[C@@H](C(=O)NNC(=O)OC)[C@H](C2)O3)O[C@H](C)[C@H]1O,0.125,1,0.5,0.125,–,4,2
CNCC(=O)N[C@@H]1[C@H](O)[C@H](O[C@H]2/C=C/C=C/C=C/C=C/C=C/C=C/C=C/[C@H](C)[C@@H](O)[C@@H](C)[C@H](C)OC(=O)C[C@H](O)C[C@H](O)CC[C@@H](O)[C@H](O)C[C@H](O)C[C@]3(O)C[C@H](O)[C@@H](C(=O)N4CCN(C(=O)c5ccncn5)CC4)[C@H](C2)O3)O[C@H](C)[C@H]1O,1,4,1,1,–,16,16
C[C@@H]1[C@H](O)[C@@H](C)/C=C/C=C/C=C/C=C/C=C/C=C/C=C/[C@H](O[C@@H]2O[C@H](C)[C@@H](O)[C@H](NC(=O)CN)[C@@H]2O)C[C@@H]2O[C@](O)(C[C@@H](O)C[C@@H](O)[C@H](O)CC[C@@H](O)C[C@@H](O)CC(=O)O[C@H]1C)C[C@H](O)[C@H]2C(=O)NCCN(C)C,1,2,0.5,1,–,1,16
CNCC(=O)N[C@@H]1[C@H](O)[C@H](O[C@H]2/C=C/C=C/C=C/C=C/C=C/C=C/C=C/[C@H](C)[C@@H](O)[C@@H](C)[C@H](C)OC(=O)C[C@H](O)C[C@H](O)CC[C@@H](O)[C@H](O)C[C@H](O)C[C@]3(O)C[C@H](O)[C@@H](C(=O)N4CCN(CCN(C)C)CC4)[C@H](C2)O3)O[C@H](C)[C@H]1O,1,1,1,2,–,1,4
CNCC(=O)N[C@@H]1[C@H](O)[C@H](O[C@H]2/C=C/C=C/C=C/C=C/C=C/C=C/C=C/[C@H](C)[C@@H](O)[C@@H](C)[C@H](C)OC(=O)C[C@H](O)C[C@H](O)CC[C@@H](O)[C@H](O)C[C@H](O)C[C@]3(O)C[C@H](O)[C@@H](C(=O)N4CCN(C(C)=O)CC4)[C@H](C2)O3)O[C@H](C)[C@H]1O,2,4,2,4,–,4,8
C[C@@H]1[C@H](O)[C@@H](C)/C=C/C=C/C=C/C=C/C=C/C=C/C=C/[C@H](O[C@@H]2O[C@H](C)[C@@H](O)[C@H](N)[C@@H]2O)C[C@@H]2O[C@](O)(C[C@@H](O)C[C@@H](O)[C@H](O)CC[C@@H](O)C[C@@H](O)CC(=O)O[C@H]1C)C[C@H](O)[C@H]2C(=O)NNC(=O)c1ccc(Cl)cc1,4,8,2,8,–,16,16
C[C@@H]1[C@H](O)[C@@H](C)/C=C/C=C/C=C/C=C/C=C/C=C/C=C/[C@H](O[C@@H]2O[C@H](C)[C@@H](O)[C@H](NC(=O)CCN)[C@@H]2O)C[C@@H]2O[C@](O)(C[C@@H](O)C[C@@H](O)[C@H](O)CC[C@@H](O)C[C@@H](O)CC(=O)O[C@H]1C)C[C@H](O)[C@H]2C(=O)NCCO,2,8,2,2,–,8,4
CNCC(=O)N[C@@H]1[C@H](O)[C@H](O[C@H]2/C=C/C=C/C=C/C=C/C=C/C=C/C=C/[C@H](C)[C@@H](O)[C@@H](C)[C@H](C)OC(=O)C[C@H](O)C[C@H](O)CC[C@@H](O)[C@H](O)C[C@H](O)C[C@]3(O)C[C@H](O)[C@@H](C(=O)N4CCN(CCOC)CC4)[C@H](C2)O3)O[C@H](C)[C@H]1O,0.5,0.5,0.25,2,–,4,32
CNCCOCC(=O)N[C@@H]1[C@H](O)[C@H](O[C@H]2/C=C/C=C/C=C/C=C/C=C/C=C/C=C/[C@H](C)[C@@H](O)[C@@H](C)[C@H](C)OC(=O)C[C@H](O)C[C@H](O)CC[C@@H](O)[C@H](O)C[C@H](O)C[C@]3(O)C[C@H](O)[C@@H](C(=O)N4CCN(CCO)CC4)[C@H](C2)O3)O[C@H](C)[C@H]1O,1,1,1,2,–,2,16

# From ChEMBL document CHEMBL5143732 (J Med Chem, 2022)
